# Results: the supplement of paper PMC10307832
# Experiments:
# Experiment in all cases: relative viability (nuclei count vs DMSO), 5 days (fraction); higher = more cells survive
# AZD8055 + Palbociclib = compound: COc1ccc(-c2ccc3c(N4CCOC[C@@H]4C)nc(N4CCOC[C@@H]4C)nc3n2)cc1CO [AZD8055] + CC(=O)c1c(C)c2cnc(Nc3ccc(N4CCNCC4)cn3)nc2n(C2CCCC2)c1=O [Palbociclib] (partner 0.5 µM)
# Procedure, shortened: (§1)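 The day after seeding in 1536-well plates, lung cancer cell lines were treated by pin tool with a single drug, or with a fixed anchor-drug dose together with five library-drug doses (not always all listed) in √10 steps. After 5 days, a combined fix-and-stain solution (final 0.05% Triton X-100, 1% formaldehyde, 1 ug/ml Hoechst) was added. Nuclei counted on 4× images gave relative viability as treated counts over vehicle counts, reported as the median of duplicate plates.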
# AZD8055 + Pictilisib = compound: COc1ccc(-c2ccc3c(N4CCOC[C@@H]4C)nc(N4CCOC[C@@H]4C)nc3n2)cc1CO [AZD8055] + CS(=O)(=O)N1CCN(Cc2cc3nc(-c4cccc5[nH]ncc45)nc(N4CCOCC4)c3s2)CC1 [Pictilisib] (partner 1 µM)
# Procedure, shortened: as §1
# AZD8055 + Phenformin = compound: COc1ccc(-c2ccc3c(N4CCOC[C@@H]4C)nc(N4CCOC[C@@H]4C)nc3n2)cc1CO [AZD8055] + N=C(N)NC(=N)NCCc1ccccc1 [Phenformin] (partner 250 µM)
# Procedure, shortened: as §1
# AZD8055 + Decitabine = compound: COc1ccc(-c2ccc3c(N4CCOC[C@@H]4C)nc(N4CCOC[C@@H]4C)nc3n2)cc1CO [AZD8055] + Nc1ncn([C@H]2C[C@H](O)[C@@H](CO)O2)c(=O)n1 [Decitabine] (partner 2 µM)
# Procedure, shortened: as §1
Cell Line,relative viability (AZD8055 + Palbociclib; first compound 0.01 µM),relative viability (AZD8055 + Palbociclib; first compound 0.03162 µM),relative viability (AZD8055 + Palbociclib; first compound 0.1 µM),relative viability (AZD8055 + Palbociclib; first compound 0.3162 µM),relative viability (AZD8055 + Palbociclib; first compound 1 µM),relative viability (AZD8055 + Pictilisib; first compound 0.01 µM),relative viability (AZD8055 + Pictilisib; first compound 0.03162 µM),relative viability (AZD8055 + Pictilisib; first compound 0.1 µM),relative viability (AZD8055 + Pictilisib; first compound 0.3162 µM),relative viability (AZD8055 + Pictilisib; first compound 1 µM),relative viability (AZD8055 + Phenformin; first compound 0.01 µM),relative viability (AZD8055 + Phenformin; first compound 0.03162 µM),relative viability (AZD8055 + Phenformin; first compound 0.1 µM),relative viability (AZD8055 + Phenformin; first compound 0.3162 µM),relative viability (AZD8055 + Phenformin; first compound 1 µM),relative viability (AZD8055 + Decitabine; first compound 0.01 µM),relative viability (AZD8055 + Decitabine; first compound 0.03162 µM),relative viability (AZD8055 + Decitabine; first compound 0.1 µM),relative viability (AZD8055 + Decitabine; first compound 0.3162 µM),relative viability (AZD8055 + Decitabine; first compound 1 µM)
NCI-H1651,0.507,0.472,0.478,0.298,0.253,0.664,0.452,0.433,0.257,0.283,0.323,0.318,0.329,0.261,0.232,0.69,0.319,0.481,0.416,0.347
NCI-H1792,0.677,0.585,0.417,0.359,0.307,0.235,0.229,0.142,0.112,0.094,0.193,0.193,0.0875,0.0907,0.109,0.585,0.38,0.338,0.093,0.124
NCI-H2023,0.264,0.229,0.0912,0.086,0.113,0.215,0.195,0.137,0.12,0.116,0.463,0.326,0.293,0.138,0.13,0.243,0.161,0.175,0.129,0.118
COR-L 105,0.426,0.388,0.374,0.403,0.381,0.488,0.31,0.388,0.326,0.35,0.506,0.529,0.35,0.278,0.275,0.718,0.714,0.579,0.445,0.431
NCI-H1734,0.378,0.386,0.288,0.215,0.192,0.427,0.312,0.295,0.175,0.199,0.417,0.288,0.264,0.176,0.194,0.551,0.344,0.433,0.299,0.234
NCI-H3122,0.194,0.197,0.155,0.147,0.117,0.549,0.47,0.337,0.272,0.29,0.444,0.425,0.428,0.233,0.204,0.442,0.341,0.3,0.149,0.129
HCC-78,0.492,0.529,0.379,0.437,0.463,0.216,0.218,0.164,0.178,0.164,0.684,0.64,0.437,0.386,0.35,0.729,0.437,0.564,0.381,0.412
NCI-H2085,0.493,0.448,0.386,0.37,0.3,0.458,0.394,0.347,0.319,0.346,0.739,0.67,0.417,0.34,0.314,0.576,0.512,0.379,0.456,0.426
